# How the values were obtained:
# HUVEC = experiment: ^51Cr release CIK cytotoxicity assay, endothelial cell targets pre-treated with BFA, protein or peptide; assay type: cell-based, human; design: block of CIK mediated lysis of HUVECs: dose or concentration left out as unconfirmed; conditions: for protection of EC from CIK lysis by pre-incubation with purified native protein: gelatin purified protein, 30 minutes, washed before CIK addition
# Method: (§1) Target cells were metabolically labelled with ^51Cr (Dupont—New England Nuclear, Boston, Mass.) by incubating 1×10^6 cells in […] ^51Cr at 37° C. for 1-1.5 hours. The labelled cells were washed three times with phosphate buffered saline (PBS) containing 0.1% bovine serum albumin. The labelled cells were distributed in flat-bottomed 96 well microtiter plates at a concentration of 2×10^4 cells/well in triplicate. Effector (CIK) cells were added at the indicated ratios. Mabs were added prior to the addition of effector cells, and incubated for 15-30 minutes at room temperature. The final volume of the assay mixture in each well was 0.2 ml. After 4 hours at 37° C., the cells were collected by centrifugation and an aliquot of the supernatant was counted in a gamma counter (Micromedic Systems, Horsham, Pa.). The percentage of specific ^51Cr release was calculated according to the following equation: […]
# Spontaneous release was obtained by incubating the labelled cells in complete medium alone and maximal release by treatment of the cells with 1% NP-40.
# For brefeldin A (BFA) treatment, freshly confluent HUVEC monolayers, nonadherent target cells or CIK cells at 0.5-2×10^6 cells per ml were incubated with medium supplemented with 0.5-10 μg of brefeldin A (B6hringer Mannheim GmbH, Mannheim, Germany) per ml medium and incubated for 2-6 hours in a humidified incubator with 5% carbon dioxide at 37° C. BFA was dissolved at 100 μg per ml in 70% ethanol and used fresh or stored up to 4 weeks at −20° C. Prior to cytotoxicity assay the cells were rinsed three times with PBS, and fresh medium not containing BFA was added for the remainder of the assay (FIG. 4).
# Both HUVEC and OCI-Ly8 cells were incubated with BFA at concentrations of 0, 2.5, 5, 7.5 and 10 μM for 6 hours as described above, washed, labeled with ^51Cr and used in a cytotoxicity assay with d21 CIK cells at an E:T ratio of 20:1. Preincubation of EC targets with 2.5 μM BFA reduced CIK mediated cytotoxicity by 40%.
# Subsequent to ^51Cr labeling but prior to addition of effector cells 10-200 μg FPLC purified Hsp47 (Example 7) protein or 10 nM to 10 μM HPLC purified peptide […] (SEQ ID NO:3) (Example 8), both in sterile PBS at pH 7.4 and diluted to the final concentration with RPMI, were added to targets per ml of medium and incubated for 30 minutes at 37° C. in a humidified atmosphere of 5% CO2. In assays using purified protein, targets were subjected to three subsequent washes with 10 volumes of Ca^2+, Mg^2+ and 5% FCS containing PBS prior to providing fresh standard culture medium to the target cells. In assays using purified peptide, the added peptide was present for the entire assay. The remainder of the assay was performed as detailed above, at 37° C. in a humidified atmosphere of 5% CO2.
# OCI-Ly8 tumor cell = experiment: ^51Cr release CIK cytotoxicity assay, tumor targets; assay type: cell-based, human; conditions: OCI-Ly8 incubated with BFA 0-10 μM for 6 hours, E:T 20:1
# Method: as §1
# Spontaneous release was obtained by incubating the labelled cells in complete medium alone and maximal release by treatment of the cells with 1% NP-40. […]
# huHsp47 RNA = experiment: Northern analysis of huHsp47 RNA expression in BFA treated EC; assay type: cell-based, human; conditions: EC under BFA treatment, 0, 2 and 6 hour time points
# Method: Northern analysis of huHsp47 RNA expression was carried out via a^32P-ATP nick translation labeling of the agarose gel purified full-length huHSP47 cDNA as probe and human beta action (a kind gift of Dr. S.N. Cohen) cDNA as internal control probe. Total RNA was harvested at 0 hour, 2 hour and 6 hour time points from EC undergoing BFA treatment. RNA for each time point was purified, denatured, subjected to formamide flatbed agarose gel electrophoresis, transferred to nitrocellulose, prehybridized, hybridized with the ^32P-labelled probes, washed under stringent conditions and autoradiographed without intensifier screens at −80° C. using techniques well known to those skilled in the art (see Sambrook et al. Molecular Cloning, A Laboratory Manual, second edition, Cold Spring Harbor Laboratory Press, 1989).
# 46.5 KDa protein (Hsp47) = experiment: Immunoprecipitation and autoradiography of ^35S labeled 46.5 KDa protein from EC; assay type: cell-based, human
# Method: For metabolic ^35S methionine/cysteine labelling cells were cultured for 22 hours in cysteine and methionine free RPMI 1640 or Hams-F12K (Irvine Scientific, Santa Ana, Calif.) media with dialyzed FCS, otherwise as described above, prior to the addition of 100 μCi ml-1 of Translabel (PIERCE/Amersham, Amersham, UK) ^35S methionine/cysteine at the start of BFA, control treatment and incubated for the indicated times. Pulse-chase labelled proteins were analyzed by SDS-PAGE, western analysis or autoradiography and silver staining.
# Immunoprecipitation was carried out by first preparing preformed immune complexes as follows: Purified specific mouse monoclonal or rabbit polyclonal antibody were incubated in stoichiometric ratio with purified secondary goat anti-mouse or anti-rabbit antibody at a concentration of 10 μg ml-1 of 150 mM NaCl, 10 mM Tris-HCl, 1% (w/v) NP40, pH 7.8 with gentle agitation for 3 hours at 4° C. In a separate reaction their respective isotype matched control antibodies were coupled to protein A sepharose beads (Pharmacia, Uppsala, Sweden). […] The specific immune precipitate was recovered by centrifugation at 13,000 rpm for 30 minutes at 4° C., washed twice with 10 mM Tris-HCl at pH 6.8 and analyzed by SDS-PAGE and subsequent silver stain, transfer to solid support and streptavidin-AP detection and autoradiography. […]
# [1] = biological target: receptors for huHsp47 on CIK cells; experiment: FACS of mature d21 CIK cells stained with 10 ug/ml eGFP-huHsp47, PE-CD56 co-staining
# mature d21 CIK = experiment: FACS analysis of mature d21 CIK with eGFP-tagged huHsp47 probe; assay type: binding, human; conditions: 10 μg eGFP-huHsp47 per ml, PE-CD56 co-staining
# Method: For Fluorescence Activated Cell Sorting (FACS) 10^6 effector or target cells were washed twice with Ca^2+, Mg^2+ and 5% FCS containing PBS buffer, suspended in 50 μl of this buffer and placed at 0-4° C. in the dark. 1 μg of FITC-, PE-, Per-CP or TriColor labelled monoclonal antibody (Beckton Dickinson, San Jose, Calif.) per staining reaction of 10^6 cells was mixed with the cells and incubated for 15 to 30 minutes at 0-4° C. in the dark. Stained cells were subjected to three subsequent washes with 10 volumes of Ca^2+, Mg^2+ and 5% FCS containing PBS and taken up in 500 μl of this buffer for analysis or sort by FACScan/FACStar (Beckton Dickinson, San Jose, Calif.) with excitation at 488 nm and the appropriate channel filters for detection of emission.
# The huHsp47δRDEL-enhanced green fluorescent protein (eGFP) fusion protein, expressed under the control of the CMV IE promoter, was isolated as described above and used as a FACS probe to search for huHsp47 cell surface binding proteins. […]
# eGFP-tagged Hsp47 FACS probe was generated through additional genetic engineering (FIG. 8A) (SEQ ID NOS: 15-18). […] FACS analysis of mature d21 CIK with eGFP-tagged HuHsp47 as FACS probe for the FITC channel, with CE56-PE co-staining, is based on differences in the Hsp47 binding ability of the analyzed CIK. […]
molecule,measurement,setting,value
"CC1CCCC=CC2CC(O)CC2C(O)C=CC(=O)O1 (centres unmarked) [BFA, 1,6,7,8,9,11a,12,13,14,14a-decahydro-1,13-dihydroxy-6-methyl-4H-cyclopent[f]oxacyclotridecin-4-one, reference compound]",suppression of CIK mediated lysis of EC,"HUVEC; BFA 0, 2.5, 5, 7.5 and 10 μM for 6 hours, E:T 20:1",suppress the CIK mediated lysis of EC in a dose dependent manner
same,persistence of resistant EC state after removal of the agent,HUVEC; after BFA removal,at least six hours
same,block of CIK mediated lysis of HUVECs,"HUVEC; preincubation in BFA (so in the source), 6 hours, E:T 20:1",completely block
same,reduction of CIK mediated cytotoxicity against EC targets,"HUVEC; preincubation with 2.5 μM BFA for 6 hours, d21 CIK, E:T 20:1",40%
same,effect on ability of CIK cells to lyse tumor targets,OCI-Ly8 tumor cell,did not affect
same,expression of housekeeping gene beta action,huHsp47 RNA,does not affect
same,huHsp47 gene expression,huHsp47 RNA,does upregulate
same,^35S labeled 46.5 KDa protein in IP from EC,46.5 KDa protein (Hsp47); non-protective dose of 30 μM BFA,not detectable
same,^35S labeled 46.5 KDa protein in IP from EC,46.5 KDa protein (Hsp47); protective dose of 10 μm BFA,contained a ^35S labeled 46.5 KDa protein
huHsp47δRDEL-enhanced green fluorescent protein (eGFP) fusion protein (from UniProt P50454 19-414),percent of cells positive for both eGFP-huHsp47 and PE-CD56 probes,[1],26%
"eGFP-huHsp47: huHsp47δRDEL-enhanced green fluorescent protein fusion protein used as FACS probe (protein, left off: large carriers, huHsp47δRDEL-enhanced green fluorescent protein fusion protein used as FACS probe) AEVKKPVEAAAPGTAEKLSSKATTLAEPSTGLAFSLYQAMAKDQAVENILVSPVVVASSLGLVSLGGKATTASQAKAVLSAEQLRDEEVHAGLGELLRSLSNSTARNVTWKLGSRLYGPSSVSFADDFVASSKQHYNCEHSKINFPDKRSALQSINEWAAQTTDGKLPEVTKDVESTDGALLVNAMFFKPHWDEKFHHKMVDNRGFMVTRSYTVGVTMMHRTGLYNYYDDEKEKLQLVEMPLAHKLSSLIILMPHHVEPLERLEKLLTKEQLKIWMGKMQKKAVAISLPKGVVEVTHDLQKHLAGLGLTEAIDKNKADLSRMSGKKDLYLASVFHATAFELDTDGNPFDQDIYGREELRSPKLFYADHPFIFLVRDTQSGSLLFIGRLVRLKGDKM",CIK cells stained by eGFP-tagged Hsp47 probe,mature d21 CIK,26%
"huHsp47: native human Hsp47, 46.5 KDa protein gelatin-affinity purified from BFA induced HUVEC (protein) AEVKKPVEAAAPGTAEKLSSKATTLAEPSTGLAFSLYQAMAKDQAVENILVSPVVVASSLGLVSLGGKATTASQAKAVLSAEQLRDEEVHAGLGELLRSLSNSTARNVTWKLGSRLYGPSSVSFADDFVASSKQHYNCEHSKINFPDKRSALQSINEWAAQTTDGKLPEVTKDVESTDGALLVNAMFFKPHWDEKFHHKMVDNRGFMVTRSYTVGVTMMHRTGLYNYYDDEKEKLQLVEMPLAHKLSSLIILMPHHVEPLERLEKLLTKEQLKIWMGKMQKKAVAISLPKGVVEVTHDLQKHLAGLGLTEAIDKNKADLSRMSGKKDLYLASVFHATAFELDTDGNPFDQDIYGREELRSPKLFYADHPFIFLVRDTQSGSLLFIGRLVRLKGDKMRDEL",protection of EC from CIK mediated lysis,HUVEC; 20 μm of gelatin-affinity purified huHsp47 per 300 μl,completely protect
same,protection of EC from CIK lysis by pre-incubation with purified native protein,HUVEC,protects EC
same,protection of EC from CIK lysis by pre-incubation with purified native protein,HUVEC; listed as p46.5,protect previously CIK sensitive EC in a dose responsive fashion

# Source: patent US20080241194A1, “COMPOSITIONS AND METHODS FOR PROTECTING ORGANS, TISSUE AND CELLS FROM IMMUNE SYSTEM-MEDIATED DAMAGE” (THE BOARD OF TRUSTEES OF THE LELAND STANFORD JUNIOR …, priority 1998, published 2008)
